# Biological target: T1, VcCBP (Vibrio cholerae, UniProt Q9KUA3)
# T1 construct: gene VC_0620
# T1 sequence (Q9KUA3 28-556 limits assumed): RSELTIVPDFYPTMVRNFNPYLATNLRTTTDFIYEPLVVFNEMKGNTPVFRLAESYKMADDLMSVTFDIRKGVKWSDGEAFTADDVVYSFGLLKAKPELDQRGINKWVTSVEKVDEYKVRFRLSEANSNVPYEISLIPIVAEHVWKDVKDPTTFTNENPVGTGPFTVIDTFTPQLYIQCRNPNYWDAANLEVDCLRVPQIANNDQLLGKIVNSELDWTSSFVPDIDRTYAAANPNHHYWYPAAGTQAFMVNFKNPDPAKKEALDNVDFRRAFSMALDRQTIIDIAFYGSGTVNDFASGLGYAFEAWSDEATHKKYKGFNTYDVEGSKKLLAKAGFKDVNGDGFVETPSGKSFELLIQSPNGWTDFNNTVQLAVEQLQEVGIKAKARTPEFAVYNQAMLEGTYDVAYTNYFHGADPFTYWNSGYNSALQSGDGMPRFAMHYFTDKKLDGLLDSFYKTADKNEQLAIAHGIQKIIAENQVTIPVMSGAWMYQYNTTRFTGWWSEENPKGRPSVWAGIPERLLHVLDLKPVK
smiles,measurement,value
CC(=O)N[C@H]1[C@H](O[C@H]2[C@H](O)[C@@H](NC(C)=O)C(O)O[C@@H]2CO)O[C@H](CO)[C@@H](O)[C@@H]1O (stereo partly shown) [(GlcNAc)2],Kd,245 nM
